Experimental data taken from patent US20220380402A1, “6-HYDRAZINOADENOSINE COMPOUNDS WITH A2A ADENOSINE RECEPTOR AGONIST ACTIVITY” (ACADEMY OF MILITARY MEDICAL SCIENCES, priority 2019, published 2022).

Tests used:
A2A adenosine receptor = biological target: T1, A2A adenosine receptor (Homo sapiens, UniProt P29274); assay: Radioligand binding test ([3H]CGS21680 displacement, hA2A HEK-293 cell membrane); settings: calculated from IC50 by Cheng and Prusoff equation; [3H]CGS21680 25 nM, Km 22 nM; 25° C., 90 minutes
T1 construct: purchased PerkinElmer Research Products (Boston, Mass.); host or cells: HEK-293 cells, stably transfected; membrane preparation
Protocol: [3H]CGS21680 (2-[p-(2-carboxyethyl)phenylethylamino]-5′-N-ethylformamidoadenosine, [carboxy-1-ethyl-3H(N)]; 250 μCi) was purchased from PerkinElmer Research Products (Boston, Mass.).
Cell membrane stably transfected with (human) A2A adenosine receptor was prepared in HEK-293 cells. The cell membrane was obtained from PerkinElmer Research Products (Boston, Mass.).
CGS21680 (2-[p-(2-carboxyethyl)phenylethylamino]-5′-N-ethylformamidoadenosine) was purchased from Selleck (Shanghai, CN).
The A2A adenosine receptors used were all expressed in the cell membrane. […] The specific binding percentage of [3H]CGS21680 was calculated according to the CPM value, % specific binding of [3H]CGS21680=(CPMsample−CPMLow Control)/(CPMHigh Control−CPMLow Control)*100, in which
High Control was 0.5% DMSO, Low Control was 100 μM CGS21680. The IC50 value was calculated based on the compound concentration and the specific binding percentage of [3H]CGS21680 by curve fitting.
The inhibition constant (Ki) value was calculated from the IC50 value according to the Cheng and Prusoff equation, Ki=IC50/(1+[S]/Km), in which [S] was the concentration of the radioligand (25 nM), and Km was the human A2AAR dissociation constant (22 nM) of [3H]CGS21680. The inhibition constant Ki values for Compounds 1 to 20 of the present invention binding to A2A adenosine receptor were shown in Table 1.

[1] = biological target: human adenosine receptor A2A (Homo sapiens, UniProt P29274); assay: Adenosine receptor A2A cAMP test (LANCE Ultra cAMP, hADORA2A-HEK293 cells); assay type: cell-based
From the text: Experimental reagents and consumables: DMEM/F12, G418, Penicillin-Streptomycin, Versene Solution, HEPES, Hank's Buffered Saline Solution, PBS (pH 7.4, 1×, sterile), FBS, BSA Stabilizer 7.5%, Rolipram, NECA, were purchased from Gibico, Hyclone and Sigma, respectively. LANCE® Ultra cAMP kit (Eu-cAMP tracer, Ulight-anti-cAMP reagent, cAMP detection buffer) and hADORA2A-HEK293 cells were purchased from PerkinElmer Research Products (Boston, Mass.). All other reagents were of analytical grade and obtained from commercial sources. 384-well polypropylene microplate and 384-well white solid plate were purchased from Labcyte and Corning, respectively.
Cells stably expressing human adenosine receptor A2A (hADORA2A-HEK293 cells) were cultured in DMEM/F12 medium containing 10% FBS, 1× Penicillin-Streptomycin and 400 μg/ml G418 in a 37° C., 5% CO2 environment. Before the experiment, the cells were digested with Versene solution, and the cells were collected by centrifugation at 200 g at room temperature for 5 minutes, and finally resuspended with detection buffer (Hank's buffered saline solution, containing 5 mM HEPES, 0.1% BSA stabilizer and 10 μM Rolipram, pH 7.4). TECAN automated pipetting workstation was used to prepare a compound source plate by 3-fold diluting the compound in a 384-well polypropylene microplate with DMSO to form 11 concentration points, in which the 11 concentration points of the compound were 10 mM, 3.33 mM, 1.11 mM, 0.37 mM, 0.12 mM, 0.041 mM, 0.013 mM, 4.57×10^−3 mM, 1.52×10^−3 mM, 5×10^−4 mM and 1.7×10^−4 mM, respectively. Echo ultrasonic pipetting system (Labcyte) was used to transfer the test compound from the compound source plate to the detection plate, in which the volume of the compound transferred was 10 nl/well. The hADORA2A-HEK293 cell suspension was diluted with detection buffer to 30,000 cells/ml, and the cell suspension was transferred to the detection plate at a volume of 10 μl/well (300 cells/well). The detection plate was centrifuged at 150 g for 1 minute and pre-incubated at room temperature for 30 minutes. […] EnVison microplate reader (EnVision multimode plate reader, PerkinElmer) was used to test the level of cyclic adenosine monophosphate in the final solution (λex=320 nm, λem=665 nm & 615 nm). The EC50 (nM) value of the compound interacting with A2A adenosine receptor to stimulate the production of a level of cyclic adenosine monophosphate was calculated. The compound A2A receptor agonist titer was expressed as the EC50 (nM) value of the compound interacting with the A2A adenosine receptor to stimulate the production of a level of cyclic adenosine monophosphate.

T1 sequence (P29274 whole entry): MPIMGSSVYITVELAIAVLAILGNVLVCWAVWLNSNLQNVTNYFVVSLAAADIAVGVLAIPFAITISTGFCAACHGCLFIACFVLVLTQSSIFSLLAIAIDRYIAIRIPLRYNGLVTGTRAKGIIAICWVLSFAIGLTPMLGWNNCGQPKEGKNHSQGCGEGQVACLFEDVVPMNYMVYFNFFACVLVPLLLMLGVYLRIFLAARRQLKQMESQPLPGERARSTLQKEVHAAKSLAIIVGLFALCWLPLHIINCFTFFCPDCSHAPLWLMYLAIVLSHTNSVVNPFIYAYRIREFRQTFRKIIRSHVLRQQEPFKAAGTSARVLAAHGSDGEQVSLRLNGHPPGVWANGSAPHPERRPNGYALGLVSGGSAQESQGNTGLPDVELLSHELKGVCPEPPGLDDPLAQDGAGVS
human adenosine receptor A2A, sequence (P29274 whole entry): as above

Row | Ki (A2A adenosine receptor) [nM] | melting point [°C] | hA2AAR agonist function (in words) ([1]; conclusion from cAMP test) | EC50 ([1]; hADORA2A-HEK293 cells, 300 cells/well, stimulation of cyclic adenosine monophosphate) [nM] | SMILES
1 | 2 | 202 | – | – | OC[C@H]1O[C@@H](n2cnc3c(N/N=C/c4ccc(N5CCCC5)cc4)ncnc32)[C@H](O)[C@@H]1O [Compound 11, (2R,3S,4R,5R)-2-(hydroxymethyl)-5-{6-{2-[(E)-4-(pyrrolidin-1-yl)benzylidene]hydrazino}-9H-purin-9-yl}tetrahydrofuran-3,4-diol]
2 | 945 | 160 | – | – | OC[C@H]1O[C@@H](n2cnc3c(N/N=C/c4ccc[nH]4)ncnc32)[C@H](O)[C@@H]1O [Compound 1, (2R,3R,4S,5R)-2-{6-{2-[(E)-(1H-pyrrol-2-yl)methylene]hydrazino}-9H-purin-9-yl}-5-(hydroxymethyl)tetrahydrofuran-3,4-diol]
3 | 15.4 | 222 | – | – | OC[C@H]1O[C@@H](n2cnc3c(N/N=C/c4ccc(-n5ccnc5)cc4)ncnc32)[C@H](O)[C@@H]1O [Compound 12, (2R,3R,4S,5R)-2-{6-{2-[(E)-4-(1H-imidazol-1-yl)benzylidene]hydrazino}-9H-purin-9-yl}-5(hydroxymethyl)tetrahydrofuran-3,4-diol]
4 | > 10000 | 186 | – | – | OC[C@H]1O[C@@H](n2cnc3c(N/N=C/c4ccc(OCc5ccccc5)c(OCc5ccccc5)c4)ncnc32)C(O)C1O (stereo partly shown) [Compound 4]
5 | 4470 | 202 | – | – | CCCOc1ccc(/C=N/Nc2ncnc3c2ncn3[C@@H]2O[C@H](CO)[C@@H](O)[C@H]2O)cc1 [Compound 13, (2R,3S,4R,5R)-2-(hydroxymethyl)-5-{6-{2-[(E)-4-propoxybenzylidene]hydrazino}-9H-purin-9-yl}tetrahydrofuran-3,4-diol]
6 | 1.2 | 178 | – | – | CCCCC/C=C/C=C/C=N/Nc1ncnc2c1ncn2[C@@H]1O[C@H](CO)[C@@H](O)[C@H]1O [Compound 21, (2R,3R,4S,5R)-2-{6-{2-[(1E,2E,4E)-deca-2,4-dien-1-ylidene]hydrazino}-9H-purin-9-yl}-5(hydroxymethyl)tetrahydrofuran-3,4-diol]
7 | 1900 | 170 | – | – | OC[C@H]1O[C@@H](n2cnc3c(N/N=C/c4ccc(-c5ccccc5)cc4)ncnc32)C(O)C1O (stereo partly shown) [Compound 10]
8 | 520 | 182 | – | – | OC[C@H]1O[C@@H](n2cnc3c(N/N=C/c4ccc(C(F)(F)F)cc4)ncnc32)[C@H](O)[C@@H]1O [Compound 14, (2R,3S,4R,5R)-2-(hydroxymethyl)-5-{6-{2-[(E)-4-(trifluoromethyl)benzylidene]hydrazino}-9H-purin-9-yl}tetrahydrofuran-3,4-diol]
9 | 4590 | 236 | – | – | OC[C@H]1O[C@@H](n2cnc3c(N/N=C/c4ccc(-c5ccccn5)cc4)ncnc32)[C@H](O)[C@@H]1O [Compound 9, (2R,3S,4R,5R)-2-(hydroxymethyl)-5-{6-{2-[(E)-4-(pyridin-2-yl)benzylidene]hydrazino}-9H-purin-9-yl}tetrahydrofuran-3,4-diol]

The remaining lines, values behind:

Row | SMILES | Ki (A2A adenosine receptor) [nM] | melting point [°C] | hA2AAR agonist function (in words) ([1]; conclusion from cAMP test) | EC50 ([1]; hADORA2A-HEK293 cells, 300 cells/well, stimulation of cyclic adenosine monophosphate) [nM]
10 | CC(=O)Nc1ccc(/C=N/Nc2ncnc3c2ncn3[C@@H]2O[C@H](CO)C(O)C2O)cc1 (stereo partly drawn) [Compound 3, N-{4-{(E)-{2-{9-[(2R,3R,4S,5R)-3,4-dihydroxy-5-(hydroxymethyl)tetrahydrofuran-2-yl]-9H-purin-6-yl}hydrazino}methyl}phenyl}acetamide] | 3.6 | 170 | – | –
11 | OC[C@H]1O[C@@H](n2cnc3c(N/N=C/c4ccc(N(c5ccccc5)c5ccccc5)cc4)ncnc32)C(O)C1O (stereo partly shown) [Compound 19] | 5580 | 160 | – | –
12 | OC[C@H]1O[C@@H](n2cnc3c(N/N=C/c4cccc(OCc5ccccc5)c4)ncnc32)[C@H](O)[C@@H]1O [Compound 8, (2R,3R,4S,5R)-2-{6-{2-[(E)-3-(benzyloxy)benzylidene]hydrazino}-9H-purin-9-yl}-5-(hydroxymethyl)tetrahydrofuran-3,4-diol] | 236 | 140 | – | –
13 | CSCC/C=N/Nc1ncnc2c1ncn2[C@@H]1O[C@H](CO)C(O)C1O (stereo partly drawn) [Compound 2, (2R,3S,4R,5R)-2-(hydroxymethyl)-5-{6-{2-[(E)-3-(methylthio)propylene]hydrazino}-9H-purin-9-yl}tetrahydrofuran-3,4-diol] | 2150 | 94 | – | –
14 | OC[C@H]1O[C@@H](n2cnc3c(N/N=C/C4CCCCC4)ncnc32)[C@H](O)[C@@H]1O [Compound 22, (2R,3R,4S,5R)-2-{6-{2-[(E)-cyclohexylmethylene]hydrazino}-9H-purin-9-yl}-5-(hydroxylmethyl)tetrahydrofuran-3,4diol] | 86.6 | 132 | – | –
15 | CN(C)c1ccc(/C=C/C=N/Nc2ncnc3c2ncn3[C@@H]2O[C@H](CO)[C@@H](O)[C@H]2O)cc1 [Compound 17, (2R,3R,4S,5R)-2-{6-{2-{(1E,2E)-3-[4-(dimethylamino)phenyl]allylidene}hydrazino}-9H-purin-9-yl}-5-(hydroxymethyl)tetrahydrofuran-3,4-diol] | 1.4 | 172 | – | –
16 | OC[C@H]1O[C@@H](n2cnc3c(N/N=C/c4ccc(C(F)(F)F)cc4C(F)(F)F)ncnc32)[C@H](O)[C@@H]1O [Compound 6, (2R,3R,4S,5R)-2-{6-{2-[(E)-2,4-bis(trifluoromethyl)benzylidene]hydrazino}-9H-purin-9-yl}-5-(hydroxymethyl)tetrahydrofuran-3,4-diol] | 1.2 | 200 | – | –
17 | OC[C@H]1O[C@@H](n2cnc3c(N/N=C/c4cncs4)ncnc32)[C@H](O)[C@@H]1O [Compound 16, (2R,3S,4R,5R)-2-(hydroxymethyl)-5-{6-{2-[(E)-thiazol-5-yl-methylene]hydrazino}-9H-purin-9-yl}tetrahydrofuran-3,4-diol] | 15.8 | 224 | hA2AAR agonists | 43.5
18 | CCCCc1nc(/C=N/Nc2ncnc3c2ncn3[C@@H]2O[C@H](CO)[C@@H](O)[C@H]2O)c(Cl)[nH]1 [Compound 20, (2R,3R,4S,5R)-2-{6-{2-[(E)-(2-butyl-5-chloro-1H-imidazol-4-yl)methylene]hydrazino}-9H-purin-9-yl}-5-(hydroxymethyl)tetrahydrofuran-3,4-diol] | 998 | 178 | – | –
19 | OC[C@H]1O[C@@H](n2cnc3c(N/N=C/c4ccc(Cl)c(C(F)(F)F)c4)ncnc32)C(O)C1O (stereo partly shown) [Compound 18] | 1470 | 196 | – | –
